# Measurements reported in the SangsterLogP compilation.
# Key:
# [1] = method code SF-ESR, from DOI: 10.1515/znc-1987-7-832, PMID: 2961152
# [2] = not given; remark: listed apart in the source
# [3] = method code SF-AS, from DOI: 10.1021/jf970979g, PMID: 10554305
# [4] = not given; remark: listed apart in the source
# [5] = not given; remark: listed apart in the source
# [6] = method code SF-HPLC, from DOI: 10.1016/s0969-8043(00)00269-4, PMID: 11200881; conditions: pH 7.4
# [7] = method code SF-AS, from DOI: 10.1002/jps.2600830406, PMID: 7913964
# [8] = method code SF-AS, from DOI: 10.1023/a:1018977225919, PMID: 10554109; conditions: pH 3.5
# [9] = method code SF-HPLC, from DOI: 10.1016/0378-5173(89)90313-x; conditions: pH 7.4
# [10] = method code SF-AS, from DOI: 10.1002/jps.2600720808, PMID: 6620139
# [11] = not given; remark: listed apart in the source
# [12] = method code SF-HPLC, from DOI: 10.2174/1871523013666141114203105, PMID: 25403255; conditions: pH 7.4
# [13] = from Courrière, P.; Paubel, J.P.; Nivière, P.; Foussard-Blaspin, O. (1978). Structure-activity study in a series of local anesthetic agents. I. Physicochemical properties and molecular orbital study. …
# [14] = method code SF, from DOI: 10.1016/j.bmcl.2009.04.053, PMID: 19409782
# [15] = not given; remark: listed apart in the source
# [16] = method code SF-GLC, from DOI: 10.1023/a:1015803202857, PMID: 2395795
# [17] = pH 7.4
# [18] = method code SF-AS, from DOI: 10.1002/jps.2600610435, PMID: 5014327
# [19] = method code SF-AS, from DOI: 10.1016/s0021-9673(01)89522-4
# [20] = method code SF-HPLC, from DOI: 10.1023/a:1011018730459, PMID: 11451042
# [21] = not given; remark: listed apart in the source
# [22] = method code SF-HPLC, from DOI: 10.3109/14756366.2013.845817, PMID: 24156741
# [23] = method code SF-RC/EN, from DOI: 10.1016/s0022-2275(20)42614-8, PMID: 2280184; conditions: pH 1.0
# [24] = method code SF-AS, from DOI: 10.1248/cpb.45.1287, PMID: 9301027
# [25] = method code SF-RC, from DOI: 10.1016/j.nucmedbio.2016.03.005, PMID: 27179748; conditions: pH 7.4
# [26] = method code SF-AS, from DOI: 10.1021/jm9807104, PMID: 10514282; conditions: pH 7.0
smiles,measurement,setting,value
CCCCCCCC(=O)OC(CNC(C)(C)C)COc1nsnc1N1CCOCC1 (centres undefined),logP,,4.66
CC1(C)CC(N(C(=O)N(CCCl)N=O)C2CC(C)(C)N(O)C(C)(C)C2)CC(C)(C)N1O,logP,[1],1.63
C[C@H](CN1CCOCC1)C(C(=O)N1CCCC1)(c1ccccc1)c1ccccc1,logP,[2],3.61
CC(NC1=CC(=O)C(NC(C)C(O)c2ccccc2)=CC1=O)C(O)c1ccccc1 (centres undefined),logP,[3],1.42
CCN(CC)C(=O)Nc1ccc(OCC(O)CNC(C)(C)C)c(C(C)=O)c1 (centres undefined),logP,[4],1.92
COc1ccc(-c2oc3c(CC=C(C)C)c(O)cc(O)c3c(=O)c2O[C@@H]2O[C@@H](C)[C@H](O)[C@@H](O)[C@H]2O)cc1,logP,[5],5.11
COc1ccccc1N1CCN(CCN(C(=O)C2CCCCC2)c2ccccn2)CC1,logD,[6],3.1
COC(=O)[C@@H]1C[C@H]2[C@@H]3CCC4=CC(=O)C=C[C@]4(C)[C@H]3[C@@H](O)C[C@]2(C)[C@H]1C(=O)CO,logP,[7],1.7
C[C@H](CCC(=O)O)[C@H]1CC[C@H]2[C@@H]3CC[C@@H]4C[C@H](O)CC[C@]4(C)[C@H]3C[C@H](O)[C@]12C,logD,[8],3.5
CN1C=CCC(C(=O)NCC(OC(=O)CCCc2ccc(N(CCCl)CCCl)cc2)c2ccccc2)=C1 (centres undefined),logD,[9],2.29
CCCCC[C@H](O)/C=C/[C@@H]1[C@@H](C/C=C\CCCC(=O)O)[C@@H](O)C[C@H]1O,logP,[10],2.72
CCC1C[C@H]2[C@@H]3CCC4=CC(=O)CC[C@@H]4[C@H]3CC[C@]2(C)[C@H]1C(=O)CF (some centres undefined),logP,[11],4.41
CC(NC1=CC(=O)C(NC(C)c2ccccc2)=CC1=O)c1ccccc1 (centres undefined),logP,[3],0.98
CC1CCC(C(C)C)C(OC(=O)COC(=O)Cc2ccccc2Nc2c(Cl)cccc2Cl)C1 (centres undefined),logD,[12],5.07
Cc1cccc(C)c1N(CCCN(C)C)C(=O)Cc1ccccc1,logP,[13],4.9
O=[N+]([O-])N=C1N(Cc2ccc(Cl)nc2)CCN1Cc1ccc2c(c1)OCCOCCOCCOCCO2,logP,[14],-0.82
C#C[C@]1(O)CC[C@H]2[C@@H]3CCc4cc(O)ccc4[C@H]3[C@@H](CC)C[C@@]21C,logP,[15],4.28
OC(CCN1CCCCC1)(c1ccccc1)C1CC2C=CC1C2 (centres undefined),logP,[16],4.25
COc1ccc(-c2oc3c(CC=C(C)C)c(O)cc(O)c3c(=O)c2O)cc1,logP,[5],6.07
CCC1C[C@H]2[C@@H]3CCC4=CC(=O)CC[C@@H]4[C@H]3CC[C@]2(C)C1C(=O)CO (some centres undefined),logP,[11],4.21
COc1cc([N+](=O)[O-])cc(C=CC(=O)N2CCC(n3c(=O)[nH]c4ccccc43)CC2)c1OC,logD,[17],3
Cc1cccc(C)c1N(CCCN(C)C)C(=O)/C=C/c1ccccc1,logP,[13],5.27
CNc1cccc(NC(=O)N[C@@H]2N=C(c3ccccn3)c3ccccc3N(CC(=O)C(C)(C)C)C2=O)c1,logD,[6],2.68
CC(C)(C)NCC(COc1nsnc1N1CCOCC1)OC(=O)c1ccccc1COC(=O)c1ccccc1 (centres undefined),logP,,4.37
COc1cc(C(=O)NC2CCCC3CN(C)CCC32)cc(OC)c1OC (centres undefined),logP,[18],-0.3
CC12CCC(O)CC1CCC1C2CCC2(C)C(C3=CC(=O)OC3)C(O)CC12O (centres undefined),logP,[19],1.76
COc1cc(C(=O)OCC2OC(n3cnc4c(NC5CCCC5)ncnc43)C(O)C2O)cc(OC)c1OC (centres undefined),logP,[20],2.27
CSc1nc(NCc2cccc(Cl)c2)c2cnn(CC(Cl)c3ccccc3)c2n1 (centres undefined),logP,[21],5.87
CCCCCCCC(=O)OCC1OC(n2cnc3c(NC4CCCC4)ncnc32)C(O)C1O (centres undefined),logP,[20],3.91
C#CCn1cc(C(=O)NC(C(=O)NC2CCCC2)c2ccccc2)c(=O)c2cc(F)c(Cl)nc21 (centres undefined),logP,[22],6.22
COC(=O)[C@@H]1C[C@H]2[C@@H]3CCC4=CC(=O)C=C[C@]4(C)[C@@]3(F)[C@@H](O)C[C@]2(C)[C@H]1C(=O)CO,logP,[7],1.78
CC1(C)CC(N(CCN(C(=O)N(CCCl)N=O)C2CC(C)(C)N(O)C(C)(C)C2)C(=O)N(CCCl)N=O)CC(C)(C)N1O,logP,[1],2.35
C[C@H](CCC(=O)O)[C@H]1CC[C@H]2[C@@H]3[C@H](O)C[C@@H]4C[C@H](O)CC[C@]4(C)[C@H]3C[C@H](O)[C@]12C,logD,[23],2.02
O=C(CCCN1CCC(O)(c2ccc(Cl)cc2)CC1)c1ccc(F)cc1,logP,[16],3.23
O=[N+]([O-])N=C1N(Cc2ccc(Cl)nc2)CCN1Cc1ccc2c(c1)OCCOCCOCCOCCOCCO2,logP,[14],-0.55
CCCCC[C@](C)(O)/C=C/C1[C@H](O)C[C@H](O)[C@@H]1C/C=C\CCCC(=O)OC (some centres undefined),logP,[10],3.21
CCOCCn1c(N2CCCN(CCCCn3cccn3)CC2)nc2ccccc21,logP,[24],3.99
COc1ccc(S(=O)(=O)N(Cc2cn(CCOCCOCCOCCF)nn2)C(C(=O)NO)C(C)C)cc1 (centres undefined),logD,[25],0.23
CN1C=CCC(C(=O)NCCCOC(=O)CCCc2ccc(N(CCCl)CCCl)cc2)=C1,logD,[9],2.75
COc1ccc(S(=O)(=O)N(Cc2ccc(OCCOCCOCCOCCOCc3cn(CCF)nn3)cc2)[C@@H](C(=O)NO)C(C)C)cc1,logD,[25],1.24
N#Cc1ccc2c(c1)N(CCCN1CCC(O)CC1)c1ccccc1S2,logP,[4],3.89
COC(=O)C(C)NP(=O)(Oc1ccc(C)cc1)OC1C=CC(n2cc(C)c(=O)[nH]c2=O)O1 (centres undefined),logD,[26],1.19
CC12CCC(O)CC1CCC1C2CCC2(C)C(C3=CC(=O)OC3)CCC12O (centres undefined),logP,[19],2.64
COc1cc(C(=O)OC2CCC[C@@H]3CN(C)CC[C@H]23)cc(OC)c1OC (some centres undefined),logP,[18],0.58
C[C@H](CCC(=O)O)C1CCC2C3C(CC[C@@]21C)[C@@]1(C)CC[C@@H](O)CC1C[C@H]3O (some centres undefined),logD,[23],3.28
Cc1ccc(C(C)C)c(OC(=O)COC(=O)Cc2ccccc2Nc2c(Cl)cccc2Cl)c1,logD,[12],5.08
CCOCCn1c(CN2CCCN(CCCCn3cccn3)CC2)nc2ccccc21,logP,[24],4.61
CCCCCC(O)C=CC1C(O)CC(=O)C1CCCCCCC(=O)O (centres undefined),logD,[8],3.12
CCOC(=O)C1(c2ccccc2)CCN(CCC(O)c2ccccc2)CC1 (centres undefined),logP,[2],4.04
CSc1nc(NCCc2ccccc2)c2cnn(C(Cl)c3ccc(Cl)cc3)c2n1 (centres undefined),logP,[21],6.54
O=C(C=Cc1cc([N+](=O)[O-])cc2c1OCO2)N1CCC2(CC1)C(=O)NCN2c1ccccc1,logD,[17],3.1
COC(=O)C(C)NP(=O)(OCC1C=CC(n2cc(C)c(=O)[nH]c2=O)O1)Oc1ccc(OC(C)=O)cc1 (centres undefined),logD,[26],1.01
C#C[C@@]1(O)[C@@H](F)C[C@H]2[C@@H]3CCc4cc(O)ccc4[C@H]3[C@@H](CC)C[C@@]21C,logP,[15],4.12
C#CCn1cc(C(=O)NC(c2ccccc2)C(O)C(=O)Nc2ccccc2)c(=O)c2cc(F)c(Cl)nc21 (centres undefined),logP,[22],5.55
